Like-named read-outs stand apart in the source and are kept apart here.
Columns and labels:
Assay type in all cases: cell-based, influenza virus
IFVA/Mal/302/54 = experiment: cytopathic effect (CPE) antiviral test in MDCK cells, IFVA/Mal/302/54; conditions: unidentified influenza virus, MDCK, 120 h, read-out: EC50(IFVA/Mal/302/54), MDCK cells, CPE method, CCK-8 cell viability, 5 days
IFVA/Weiss/43 = experiment: cytopathic effect (CPE) antiviral test in MDCK cells, IFVA/Weiss/43
IFV A/PR/8/34 = experiment: cytopathic effect (CPE) antiviral test in MDCK cells, IFV A/PR/8/34; conditions: unidentified influenza virus, PR/8, MDCK, 120 h, read-out: EC50(IFV A/PR/8/34)
[1] = unidentified influenza virus, MDCK, 120 h, read-out: EC50(IFVA/Weiss/43), MDCK cells, CPE method, CCK-8 cell viability, 5 days

O=C(Nc1ccc2nc(-c3ccnc(C(=O)N4CCN(C(c5ccccc5)c5nnn(C(F)F)n5)CC4)c3)oc2c1)[C@@H]1CC1(F)F (mixture of isomers) [Compound 103, (S)—N-(2-(2-(4-((R/S)-(2-(difluoromethyl)-2H-tetrazol-5-yl)(phenyl)methyl)piperazine-1-carbonyl)pyridin-4-yl)benzo[d]oxazol-6-yl)-2,2-difluorocyclopropane-1-carboxamide]
EC50 (IFVA/Mal/302/54): 17 nM
EC50 (IFVA/Weiss/43; [1]): 7 nM
EC50 (IFV A/PR/8/34): 26 nM

O=C(Nc1ccc2oc(-c3ccnc(C(=O)N4CCN(C(c5ccccc5)c5nnn(C(F)F)n5)CC4)c3)cc2c1)[C@@H]1C[C@@H]1F (mixture of isomers) [Compound 111, (1S,2S)—N-(2-(2-(4-((R/S)-(2-(difluoromethyl)-2H-tetrazol-5-yl)(phenyl)methyl)piperazine-1-carbonyl)pyridin-4-yl)benzofuran-5-yl)-2-fluorocyclopropane-1-carboxamide]
EC50 (IFVA/Mal/302/54): 2 nM
EC50 (IFVA/Weiss/43; [1]): 0.5 nM
EC50 (IFV A/PR/8/34): 2 nM

Cc1nnn(C(c2ccccc2)C2CCN(C(=O)c3cc(-c4nc5cc(NC(=O)[C@@H]6C[C@@H]6F)ccc5o4)ccn3)CC2)n1 (mixture of isomers) [Compound 120, (1S,2S)-2-fluoro-N-(2-(2-(4-((R/S)-(5-methyl-2H-tetrazol-2-yl)(phenyl)methyl)piperidine-1-carbonyl)pyridin-4-yl)benzo[d]oxazol-5-yl)cyclopropanecarboxamide]
EC50 (IFVA/Mal/302/54): 14 nM
EC50 (IFVA/Weiss/43; [1]): 3 nM
EC50 (IFV A/PR/8/34): 12 nM

CC(=O)Nc1ccc2oc(-c3ccnc(C(=O)C4CCN(C(c5ccccc5)c5nnn(C(F)F)n5)CC4)c3)nc2c1 (racemic) [Compound 42, (R/S)—N-(2-(2-(1-((2-(difluoromethyl)-2H-tetrazol-5-yl)(phenyl)methyl)piperidine-4-carbonyl)pyridin-4-yl)benzo[d]oxazol-5-yl)acetamide]
EC50 (IFVA/Mal/302/54): 10 nM
EC50 (IFVA/Weiss/43; [1]): 20 nM
EC50 (IFV A/PR/8/34): 20 nM

Cn1nnc(C(c2ccccc2)N2CCN(C(=O)c3cc(-c4nc5cc(N6CCCC6=O)ccc5o4)ccn3)CC2)n1 (racemic) [Compound 45, (R/S)-1-(2-(2-(4-((2-methyl-2H-tetrazol-5-yl)(phenyl)methyl)piperazine-1-carbonyl)pyridin-4-yl)benzo[d]oxazol-5-yl)pyrrolidin-2-one]
EC50 (IFVA/Mal/302/54): 12 nM
EC50 (IFVA/Weiss/43; [1]): 15 nM
EC50 (IFV A/PR/8/34): 27 nM

Cn1nnc(C(c2ccccc2)N2CCN(C(=O)c3cc(-c4nc5cc(NC(=O)C6CC6)ccc5o4)ccn3)CC2)n1 (centres unmarked) [Compound 35, N-(2-(2-(4-((2-methyl-2H-tetrazol-5-yl)(phenyl)methyl)piperazine-1-carbonyl)pyridin-4-yl)benzo[d]oxazol-5-yl)cyclopropanecarboxamide]
EC50 (IFVA/Mal/302/54): 19 nM
EC50 (IFVA/Weiss/43; [1]): 12 nM

O=C(c1cc(-c2nc3cc(N4CCCC4=O)ccc3o2)ccn1)N1CCN(C(c2ccccc2)c2nnn(C(F)F)n2)CC1 (centres unmarked) [Compound 37, 1-(2-(2-(4-((2-(difluoromethyl)-2H-tetrazol-5-yl)(phenyl)methyl)piperazine-1-carbonyl)pyridin-4-yl)benzo[d]oxazol-5-yl)pyrrolidin-2-one]
EC50 (IFVA/Mal/302/54): 22 nM
EC50 (IFVA/Weiss/43; [1]): 17 nM

Cn1nnc(C(c2ccccc2)N2CCN(C(=O)c3cc(-c4nc5cc(O[C@H]6CCOC6)ccc5o4)ccn3)CC2)n1 (stereo partly drawn) [Compound 38, (4-((2-methyl-2H-tetrazol-5-yl)(phenyl)methyl)piperazin-1-yl)(4-(5-(((S)-tetrahydrofuran-3-yl)oxy)benzo[d]oxazol-2-yl)pyridin-2-yl)methanone]
EC50 (IFVA/Mal/302/54): 18 nM
EC50 (IFVA/Weiss/43; read-out: EC50(IFVA/Weiss/43), MDCK cells, CPE method, CCK-8 cell viability, 5 days): 20 nM

O=C(c1cc(-c2nc3cc(O[C@H]4CCOC4)ccc3o2)ccn1)N1CCN(C(c2ccccc2)c2nnn(C(F)F)n2)CC1 (stereo partly drawn) [Compound 39, (4-((2-(difluoromethyl)-2H-tetrazol-5-yl)(phenyl)methyl)piperazin-1-yl)(4-(5-(((S)-tetrahydrofuran-3-yl)oxy)benzo[d]oxazol-2-yl)pyridin-2-yl)methanone]
EC50 (IFVA/Mal/302/54): 11 nM
EC50 (IFVA/Weiss/43; [1]): 4 nM

CC(=O)Nc1ccc2oc(-c3ccnc(C(=O)N4CCN(C(c5ccccc5)c5nnn(C(F)F)n5)CC4)c3)nc2c1 (centres unmarked) [Compound 40, N-(2-(2-(4-((2-(difluoromethyl)-2H-tetrazol-5-yl)(phenyl)methyl)piperazine-1-carbonyl)pyridin-4-yl)benzo[d]oxazol-5-yl)acetamide]
EC50 (IFVA/Mal/302/54): 24 nM
EC50 (IFVA/Weiss/43; [1]): 16 nM

Cn1nnc(C(c2ccccc2)N2CCN(C(=O)c3cc(-c4nc5cc(OC(F)F)ccc5o4)ccn3)CC2)n1 (centres unmarked) [Compound 44, (4-(5-(difluoromethoxy)benzo[d]oxazol-2-yl)pyridin-2-yl)(4-((2-methyl-2H-tetrazol-5-yl)(phenyl)methyl)piperazin-1-yl)methanone]
EC50 (IFVA/Mal/302/54): 65 nM
EC50 (IFVA/Weiss/43; [1]): 110 nM

CC(=O)Nc1ccc2oc(-c3ccnc(C(=O)N4CCC(O)(C(c5ccccc5)c5nnn(C)n5)CC4)c3)nc2c1 (centres unmarked) [Compound 47, N-(2-(2-(4-hydroxy-4-((2-methyl-2H-tetrazol-5-yl)(phenyl)methyl)piperidine-1-carbonyl)pyridin-4-yl)benzo[d]oxazol-5-yl)acetamide]
EC50 (IFVA/Mal/302/54): 81 nM
EC50 (IFVA/Weiss/43; [1]): 35 nM

CC(=O)Nc1ccc2oc(-c3ccnc(C(=O)N4CCC(=C(c5ccccc5)c5nnn(C)n5)CC4)c3)nc2c1 [Compound 49, N-(2-(2-(4-((2-methyl-2H-tetrazol-5-yl)(phenyl)methylene)piperidine-1-carbonyl)pyridin-4-yl)benzo[d]oxazol-5-yl)acetamide]
EC50 (IFVA/Mal/302/54): 180 nM
EC50 (IFVA/Weiss/43; [1]): 112 nM

Cn1nnc(C(c2ccccc2)N2CCN(C(=O)c3cc(-c4nc5cc(N6CCOC6=O)ccc5o4)ccn3)CC2)n1 (centres unmarked) [Compound 50, 3-(2-(2-(4-((2-methyl-2H-tetrazol-5-yl)(phenyl)methyl)piperazine-1-carbonyl)pyridin-4-yl)benzo[d]oxazol-5-yl)oxazolidin-2-one]
EC50 (IFVA/Mal/302/54): 120 nM
EC50 (IFVA/Weiss/43; [1]): 242 nM

COC(=O)Nc1ccc2oc(-c3ccnc(C(=O)N4CCN(C(c5ccccc5)c5nnn(C)n5)CC4)c3)nc2c1 (centres unmarked) [Compound 51, Methyl (2-(2-(4-((2-methyl-2H-tetrazol-5-yl)(phenyl)methyl)piperazine-1-carbonyl)pyridin-4-yl)benzo[d]oxazol-5-yl)carbamate]
EC50 (IFVA/Mal/302/54): 34 nM
EC50 (IFVA/Weiss/43; [1]): 84 nM

CC(=O)Nc1ccc2oc(-c3ccnc(C(=O)N4CCN(C(c5ccccc5)c5nnn(C(F)F)n5)CC4)c3F)nc2c1 (centres unmarked) [Compound 56, N-(2-(2-(4-((2-(difluoromethyl)-2H-tetrazol-5-yl)(phenyl)methyl)piperazine-1-carbonyl)-3-fluoropyridin-4-yl)benzo[d]oxazol-5-yl)acetamide]
EC50 (IFVA/Mal/302/54): 33 nM
EC50 (IFVA/Weiss/43; [1]): 17 nM

CC(=O)Nc1cc2nc(-c3ccnc(C(=O)N4CCN(C(c5ccccc5)c5nnn(C(F)F)n5)CC4)c3)oc2cc1F (centres unmarked) [Compound 59, N-(2-(2-(4-((2-(difluoromethyl)-2H-tetrazol-5-yl)(phenyl)methyl)piperazine-1-carbonyl)pyridin-4-yl)-6-fluorobenzo[d]oxazol-5-yl)acetamide]
EC50 (IFVA/Mal/302/54): 58 nM
EC50 (IFVA/Weiss/43; [1]): 56 nM

CC(=O)Nc1ccc2nn(-c3ccnc(C(=O)N4CCN(C(c5ccccc5)c5nnn(C(F)F)n5)CC4)c3)cc2c1 (centres unmarked) [Compound 60, N-(2-(2-(4-((2-(difluoromethyl)-2H-tetrazol-5-yl)(phenyl)methyl)piperazine-1-carbonyl)pyridin-4-yl)-2H-indazol-5-yl)acetamide]
EC50 (IFVA/Mal/302/54): 84 nM
EC50 (IFVA/Weiss/43; [1]): 54 nM

CC(=O)Nc1cc(F)c2oc(-c3ccnc(C(=O)N4CCN(C(c5ccccc5)c5nnn(C(F)F)n5)CC4)c3)nc2c1 (centres unmarked) [Compound 61, N-(2-(2-(4-((2-(difluoromethyl)-2H-tetrazol-5-yl)(phenyl)methyl)piperazine-1-carbonyl)pyridin-4-yl)-7-fluorobenzo[d]oxazol-5-yl)acetamide]
EC50 (IFVA/Mal/302/54): 78 nM
EC50 (IFVA/Weiss/43; [1]): 28 nM

CC(=O)Nc1ccc2nc(-c3ccnc(C(=O)N4CCN(C(c5ccccc5)c5nnn(C(F)F)n5)CC4)c3)oc2c1 (centres unmarked) [Compound 70, N-(2-(2-(4-((2-(difluoromethyl)-2H-tetrazol-5-yl)(phenyl)methyl)piperazine-1-carbonyl)pyridin-4-yl)benzo[d]oxazol-6-yl)acetamide]
EC50 (IFVA/Mal/302/54): 32 nM
EC50 (IFVA/Weiss/43; [1]): 32 nM

O=C(c1cc(-c2nc3cc(N4CCCC4)ccc3o2)ccn1)N1CCN(C(c2ccccc2)c2nnn(C(F)F)n2)CC1 (centres unmarked) [Compound 71, (4-((2-(difluoromethyl)-2H-tetrazol-5-yl)(phenyl)methyl)piperazin-1-yl)(4-(5-(pyrrolidin-1-yl)benzo[d]oxazol-2-yl)pyridin-2-yl)methanone]
EC50 (IFVA/Mal/302/54): 52 nM
EC50 (IFVA/Weiss/43; [1]): 31 nM

O=C(Nc1ccc2oc(-c3ccnc(C(=O)N4C5CCC4CN(C(c4ccccc4)c4nnn(C(F)F)n4)C5)c3)nc2c1)C1CC1 (centres unmarked) [Compound 175, N-(2-(2-(3-((2-(difluoromethyl)-2H-tetrazol-5-yl)(phenyl)methyl)-3,8-diazabicyclo[3.2.1]octane-8-carbonyl)pyridin-4-yl)benzo[d]oxazol-5-yl)cyclopropanecarboxamide]
EC50 (IFVA/Mal/302/54): 21 nM
EC50 (IFVA/Weiss/43; [1]): 13 nM

O=C1CCCN1c1ccc2oc(-c3ccnc(C(=O)N4C5CCC4CN(C(c4ccccc4)c4nnn(C(F)F)n4)C5)c3)nc2c1 (centres unmarked) [Compound 176, 1-(2-(2-(3-((2-(difluoromethyl)-2H-tetrazol-5-yl)(phenyl)methyl)-3,8-diazabicyclo[3.2.1]octane-8-carbonyl)pyridin-4-yl)benzo[d]oxazol-5-yl)pyrrolidin-2-one]
EC50 (IFVA/Mal/302/54): 21 nM
EC50 (IFVA/Weiss/43; [1]): 33 nM

Cn1nnc(C(c2ccccc2)N2CCN(C(=O)c3cc(-c4nc5cc(NC(=O)C6(F)CC6)ccc5o4)ccn3)CC2)n1 (centres unmarked) [Compound 194, 1-fluoro-N-(2-(2-(4-((2-methyl-2H-tetrazol-5-yl)(phenyl)methyl)piperazine-1-carbonyl)pyridin-4-yl)benzo[d]oxazol-5-yl)cyclopropane-1-carboxamide]
EC50 (IFVA/Mal/302/54): 25 nM
EC50 (IFVA/Weiss/43; [1]): 24 nM
